IC50 data for 30 molecules are collected here from US10196369B2, “Spirocyclic EBI2 modulators” (Sanford Burnham Prebys Medical Discovery Institute, priority 2013, dated 2019).

Chain of EBI2 (P32249 whole entry): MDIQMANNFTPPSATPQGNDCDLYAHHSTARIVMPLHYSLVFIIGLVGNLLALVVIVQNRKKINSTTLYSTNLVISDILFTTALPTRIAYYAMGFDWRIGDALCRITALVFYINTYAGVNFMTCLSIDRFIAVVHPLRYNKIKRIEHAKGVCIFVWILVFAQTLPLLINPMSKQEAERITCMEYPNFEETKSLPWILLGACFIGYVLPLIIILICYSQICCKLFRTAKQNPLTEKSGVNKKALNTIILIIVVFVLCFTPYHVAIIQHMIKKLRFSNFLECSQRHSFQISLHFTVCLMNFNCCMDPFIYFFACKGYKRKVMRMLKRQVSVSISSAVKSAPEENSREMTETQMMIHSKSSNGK

The target of this assay is EBI2 (Homo sapiens, UniProt P32249). Put plainly: Cell-based luminescent assay of EBI2 modulation (7a,25-OHC stimulated). Conditions: 7a,25-OHC final assay concentration 80 nM, 60 minute incubation. The protocol: To assess EBI2 modulation, the compounds described herein were assayed in the following cell-based luminescent assay:
1) Plated 600 cells/well in 4 μL of assay media into columns 1-48 of a 1536-well assay plate, using a liquid dispenser.
2) Centrifuged plates at 1000 rpm for 1 minute and covered with lids.
3) Incubated overnight at 37° C., 100% relative humidity, 5% CO2.
1) Centrifuged compound plates containing compounds described herein at 500 rpm for 1 minute.
2) Added compounds into assay plate col 5-48 to final concentration 4-5 uM. Added matching amount of DMSO to positive and negative control wells in columns 1-4.
3) Dispensed 2 uL/well of assay media to columns 1-2 for the positive control wells.
4) Added 2 uL/well of 400 nM 7a,25-OHC (final assay concentration=80 nM) in assay media to columns 3-48 for the negative control and test compound wells.
5) Centrifuged plates at 1000 rpm for 1 minute and re-lid plates.
6) Incubated plates at 37° C., 100% relative humidity, 5% CO2 for 60 minutes.
7) Following 60 minute incubation, delivered 2.5 uL of Detection Reagent solution to each assay plate (Columns 1-48) using a liquid handler.
8) Centrifuged plates at 2000 rpm for 2 minutes and re-lid plates.
9) Incubated plates for 60 minutes at 25 degrees in the dark.
10) Read plates using the Viewlux, Envision or other suitable plate reader using a luminescence detection.
The experimental values were normalized by the difference between values from neutral and stimulator control wells in each plate. Then normalized data was corrected to remove systematic plate patterns due to artifacts such as dispensing tip issues etc.
In turn, `O=C(/C=C/c1ccc(Cl)c(Cl)c1)N1CC2(CCN(C(=O)c3ccc(-c4nnn[nH]4)cc3)CC2)C1` [Compound C31, (2E)-3-(3,4-dichlorophenyl)-1-{7-[(4-(1H-1,2,3,4-tetraazol-5-yl)phenyl)carbonyl]-2,7-diazaspiro[3.5]non-2-yl}prop-2-en-1-one] yielded an IC50 of 500 to 5000 nM. Regarding `O=C(/C=C/c1ccc(Cl)c(Cl)c1)N1CC2(CCN(Cc3ccc(F)cc3)CC2)C1` [Compound C32, (2E)-3-(3,4-dichlorophenyl)-1-{7-[(4-fluorophenyl)methyl]-2,7-diazaspiro[3.5]non-2-yl}prop-2-en-1-one], the concentration for half-maximal inhibition (IC50) is 100 to 500 nM. Under `O=C(/C=C/c1ccc(Cl)c(Cl)c1)N1CC2(CCN(Cc3ccc(Cl)cc3)CC2)C1` [Compound C33, (2E)-3-(3,4-dichlorophenyl)-1-{7-[(4-chlorophenyl)methyl]-2,7-diazaspiro[3.5]non-2-yl}prop-2-en-1-one] stands 100 to 500 nM. In turn, `O=C(/C=C/c1ccc(Cl)c(Cl)c1)N1CC2(CCN(Cc3ccc(C(F)(F)F)c(F)c3)CC2)C1` [Compound C34, (2E)-3-(3,4-dichlorophenyl)-1-(7-{[3-fluoro-4-(trifluoromethyl)phenyl]methyl}-2,7-diazaspiro[3.5]non-2-yl)prop-2-en-1-one] displayed an IC50 of 100 to 500 nM. Under `O=C(/C=C/c1ccc(Cl)c(Cl)c1)N1CCC2(CC1)CN(C(=O)/C=C/c1ccc(Cl)c(Cl)c1)C2` [Compound C35, (2E)-1-{2-[(2E)-3-(3,4-dichlorophenyl)prop-2-enoyl]-2,7-diazaspiro[3.5]non-7-yl}-3-(3,4-dichlorophenyl)prop-2-en-1-one] stands less than 100 nM; under `O=C(c1cc2cc(Cl)ccc2[nH]1)N1CC2(CCN(Cc3ccc(OC(F)(F)F)cc3)CC2)C1` [Compound C36, 5-chloroindol-2-yl 7-{[4-(trifluoromethoxy)phenyl]methyl}-2,7-diazaspiro[3.5]non-2-yl ketone], 100 to 500 nM; under `O=C(c1ccc(B(O)O)cc1)N1CCC2(CC1)CN(C(=O)c1cc3cc(Cl)ccc3[nH]1)C2` [Compound C37, 4-(2-(5-chloro-1H-indole-2-carbonyl)-2,7-diazaspiro[3.5]nonane-7-carbonyl)phenylboronic acid], 100 to 500 nM.

Take `O=C(c1ccc(F)cc1)N1CCC2(CC1)CN(C(=O)c1cc3cc(Cl)ccc3[nH]1)C2` [Compound C38, 5-chloroindol-2-yl 7-[(4-fluorophenyl)carbonyl]-2,7-diazaspiro[3.5]non-2-yl ketone]: the IC50 fell in the range of 100 to 500 nM. Under `O=C(c1ccc(C(F)(F)F)cc1)N1CCC2(CC1)CN(C(=O)c1cc3cc(Cl)ccc3[nH]1)C2` [Compound C39, 5-chloroindol-2-yl 7-{[4-(trifluoromethyl)phenyl]carbonyl}-2,7-diazaspiro[3.5]non-2-yl ketone] stands less than 100 nM.

In the case of `O=C(c1ccc(Cl)cc1)N1CCC2(CC1)CN(C(=O)c1cc3cc(Cl)ccc3[nH]1)C2` [Compound C40, 5-chloroindol-2-yl 7-[(4-chlorophenyl)carbonyl]-2,7-diazaspiro[3.5]non-2-yl ketone], the IC50 is less than 100 nM. Under `O=C(c1ccc(-c2nnn[nH]2)cc1)N1CCC2(CC1)CN(C(=O)c1cc3cc(Cl)ccc3[nH]1)C2` [Compound C42, 5-chloroindol-2-yl 7-[(4-(1H-1,2,3,4-tetraazol-5-yl)phenyl)carbonyl]-2,7-diazaspiro[3.5]non-2-yl ketone] stands 500 to 5000 nM; under `N#Cc1ccc(C(=O)N2CCC3(CC2)CN(C(=O)/C=C/c2ccc(Br)cc2)C3)cc1F` [Compound C43, 4-({2-[(2E)-3-(4-bromophenyl)prop-2-enoyl]-2,7-diazaspiro[3.5]non-7-yl}carbonyl)-2-fluorobenzenecarbonitrile], less than 100 nM. Under `O=C(/C=C/c1ccc(Br)cc1)N1CC2(CCN(C(=O)c3cc(F)cc(F)c3)CC2)C1` [Compound C44, (2E)-1-{7-[(3,5-difluorophenyl)carbonyl]-2,7-diazaspiro[3.5]non-2-yl}-3-(4-bromophenyl)prop-2-en-1-one] stands less than 100 nM. Under `O=C(/C=C/c1ccc(Br)cc1)N1CC2(CCN(C(=O)c3ccc(F)cc3C(F)(F)F)CC2)C1` [Compound C45, (2E)-3-(4-bromophenyl)-1-(7-{[4-fluoro-2-(trifluoromethyl)phenyl]carbonyl}-2,7-diazaspiro[3.5]non-2-yl)prop-2-en-1-one] stands less than 100 nM; under `O=C(c1ccc(Br)cc1)N1CCC2(CC1)CN(C(=O)c1cc3cc(Br)ccc3[nH]1)C2` [Compound C46, 5-bromoindol-2-yl 7-[(4-bromophenyl)carbonyl]-2,7-diazaspiro[3.5]non-2-yl ketone], less than 100 nM; under `O=C(c1ccc(F)cc1)N1CCC2(CC1)CN(C(=O)c1cc3cc(Br)ccc3[nH]1)C2` [Compound C47, 5-bromoindol-2-yl 7-[(4-fluorophenyl)carbonyl]-2,7-diazaspiro[3.5]non-2-yl ketone], 100 to 500 nM. `O=C(c1cc2cc(Br)ccc2[nH]1)N1CC2(CCN(C(=O)c3ccc(F)cc3C(F)(F)F)CC2)C1` [Compound C48, 5-bromoindol-2-yl 7-{[4-fluoro-2-(trifluoromethyl)phenyl]carbonyl}-2,7-diazaspiro[3.5]non-2-yl ketone] yielded an IC50 of less than 100 nM. Under `O=C(c1cc2cc(Br)ccc2[nH]1)N1CC2(CCN(Cc3ccc(Cl)cc3)CC2)C1` [Compound C49, 5-bromoindol-2-yl 7-[(4-chlorophenyl)methyl]-2,7-diazaspiro[3.5]non-2-yl ketone] stands 500 to 5000 nM. The molecule `O=C(c1cc2cc(Br)ccc2[nH]1)N1CC2(CCN(Cc3ccc(C(F)(F)F)cc3)CC2)C1` [Compound C50, 5-bromoindol-2-yl 7-{[4-(trifluoromethyl)phenyl]methyl}-2,7-diazaspiro[3.5]non-2-yl ketone] displayed an IC50 of 500 to 5000 nM. Under `Nc1ccc(C(=O)N2CCC3(CC2)CN(C(=O)/C=C/c2ccc(Br)cc2)C3)cc1` [Compound C51, (2E)-1-{7-[(4-aminophenyl)carbonyl]-2,7-diazaspiro[3.5]non-2-yl}-3-(4-bromophenyl)prop-2-en-1-one] stands less than 100 nM; under `O=C(/C=C/c1ccc(Br)cc1)N1CCC2(CC1)CN(C(=O)c1ccc(F)cc1C(F)(F)F)C2` [Compound C52, (2E)-3-(4-bromophenyl)-1-(2-{[4-fluoro-2-(trifluoromethyl)phenyl]carbonyl}-2,7-diazaspiro[3.5]non-7-yl)prop-2-en-1-one], less than 100 nM; under `O=C(/C=C/c1ccc(Br)cc1)N1CCC2(CC1)CN(C(=O)c1ccc(F)cc1)C2` [Compound C53, (2E)-3-(4-bromophenyl)-1-{2-[(4-fluorophenyl)carbonyl]-2,7-diazaspiro[3.5]non-7-yl}prop-2-en-1-one], less than 100 nM. `O=C(/C=C/c1ccc(Br)cc1)N1CCC2(CC1)CN(C(=O)c1ccc(C(F)(F)F)cc1)C2` [Compound C54, (2E)-3-(4-bromophenyl)-1-(2-{[4-(trifluoromethyl)phenyl]carbonyl}-2,7-diazaspiro[3.5]non-7-yl)prop-2-en-1-one] yielded an IC50 of less than 100 nM. In turn, `O=C(c1ccc(F)cc1)N1CCC2(CC1)CN(C(=O)c1cc3ccc(Cl)cc3[nH]1)C2` [Compound C55, 6-chloroindol-2-yl 7-[(4-fluorophenyl)carbonyl]-2,7-diazaspiro[3.5]non-2-yl ketone] registered an IC50 of 500 to 5000 nM. In the case of `O=C(c1ccc(Cl)cc1)N1CCC2(CC1)CN(C(=O)c1cc3ccc(Cl)cc3[nH]1)C2` [Compound C56, 6-chloroindol-2-yl 7-[(4-chlorophenyl)carbonyl]-2,7-diazaspiro[3.5]non-2-yl ketone], the IC50 lay within 500 to 5000 nM. Under `O=C(c1ccc(F)cc1)N1CCC2(CC1)CN(C(=O)c1cc3ccc(Br)cc3[nH]1)C2` [Compound C57, 6-bromoindol-2-yl 7-[(4-fluorophenyl)carbonyl]-2,7-diazaspiro[3.5]non-2-yl ketone] stands 500 to 5000 nM; under `O=C(c1ccc(C(F)(F)F)cc1)N1CCC2(CC1)CN(C(=O)c1cc3ccc(Br)cc3[nH]1)C2` [Compound C58, 6-bromoindol-2-yl 7-{[4-(trifluoromethyl)phenyl]carbonyl}-2,7-diazaspiro[3.5]non-2-yl ketone], 500 to 5000 nM; under `O=C(c1ccc(Cl)cc1)N1CCC2(CC1)CN(C(=O)c1cc3ccc(Br)cc3[nH]1)C2` [Compound C59, 6-bromoindol-2-yl 7-[(4-chlorophenyl)carbonyl]-2,7-diazaspiro[3.5]non-2-yl ketone], 500 to 5000 nM. Consider `O=C(c1cc2cc(Br)ccc2[nH]1)N1CC2(CCN(Cc3ccc(F)cc3C(F)(F)F)CC2)C1` [Compound C60, 5-bromoindol-2-yl 7-{[4-fluoro-2-(trifluoromethyl)phenyl]methyl}-2,7-diazaspiro[3.5]non-2-yl ketone], for which the IC50 fell in the range of 500 to 5000 nM.

In turn, `O=C(c1cc2ccc(Br)cc2[nH]1)N1CC2(CCN(C(=O)c3ccc(F)cc3C(F)(F)F)CC2)C1` [Compound C61, 6-bromoindol-2-yl 7-{[4-fluoro-2-(trifluoromethyl)phenyl]carbonyl}-2,7-diazaspiro[3.5]non-2-yl ketone] gave an IC50 of 100 to 500 nM.

The term IC50 denotes the concentration at which inhibition is half-maximal. Low readings indicate inhibition by little substance, high ones a need for much substance.
